Test results from ChEMBL document CHEMBL2401728, “An unexpected Dimroth rearrangement leading to annelated thieno[3,2-d][1,2,3]triazolo[1,5-a]pyrimidines with potent antitumor activity” (Eur J Med Chem, 2013).

Columns and labels:
Format in all cases: functional
[1] = system: OVCAR-3; test: Cytotoxicity against human OVCAR3 cells assessed as cellular growth at 0.01 uM after 48 hrs by SRB assay relative to control
[2] = system: SK-MEL-5; test: Cytotoxicity against human SK-MEL-5 cells assessed as cellular growth at 0.01 uM after 48 hrs by SRB assay relative to control
[3] = system: SNB-19; test: Cytotoxicity against human SNB19 cells assessed as cellular growth at 0.01 uM after 48 hrs by SRB assay relative to control
[4] = system: NCI-H460; test: Cytotoxicity against human NCI-H460 cells assessed as cellular growth at 0.01 uM after 48 hrs by SRB assay relative to control
[5] = system: NCI-H226; test: Cytotoxicity against human NCI-H226 cells assessed as cellular growth at 0.01 uM after 48 hrs by SRB assay relative to control
[6] = system: K562; test: Cytotoxicity against human K562 cells assessed as cellular growth at 0.01 uM after 48 hrs by SRB assay relative to control
[7] = system: U-251; test: Cytotoxicity against human U251 cells assessed as cellular growth at 100 uM after 48 hrs by SRB assay relative to control
[8] = system: NCI-H322M; test: Cytotoxicity against human NCI-H322M cells assessed as cellular growth at 100 uM after 48 hrs by SRB assay relative to control
[9] = system: HOP-62; test: Cytotoxicity against human HOP62 cells assessed as cellular growth at 100 uM after 48 hrs by SRB assay relative to control
[10] = system: CCRF-CEM; test: Cytotoxicity against human CCRF-CEM cells assessed as cellular growth at 100 uM after 48 hrs by SRB assay relative to control
[11] = system: T47D; test: Cytotoxicity against human T47D cells assessed as cellular growth at 1 uM after 48 hrs by SRB assay relative to control
[12] = system: SW-620; test: Cytotoxicity against human SW620 cells assessed as cellular growth at 10 uM after 48 hrs by SRB assay relative to control
[13] = system: Hs-578T; test: Cytotoxicity against human Hs578T cells assessed as cellular growth at 100 uM after 48 hrs by SRB assay relative to control
[14] = system: RXF 393; test: Cytotoxicity against human RXF393 cells assessed as cellular growth at 1 uM after 48 hrs by SRB assay relative to control
[15] = system: OVCAR-8; test: Cytotoxicity against human OVCAR8 cells assessed as cellular growth at 1 uM after 48 hrs by SRB assay relative to control
[16] = system: U-251; test: Cytotoxicity against human U251 cells assessed as cellular growth at 1 uM after 48 hrs by SRB assay relative to control
[17] = system: HCT-116; test: Cytotoxicity against human HCT116 cells assessed as cellular growth at 1 uM after 48 hrs by SRB assay relative to control
[18] = system: NCI-H460; test: Cytotoxicity against human NCI-H460 cells assessed as cellular growth at 1 uM after 48 hrs by SRB assay relative to control
[19] = system: HOP-62; test: Cytotoxicity against human HOP62 cells assessed as cellular growth at 1 uM after 48 hrs by SRB assay relative to control
[20] = system: SR; test: Cytotoxicity against human SR cells assessed as cellular growth at 1 uM after 48 hrs by SRB assay relative to control
[21] = system: UO-31; test: Cytotoxicity against human UO31 cells after 48 hrs by SRB assay; details: UO-31, 48 h
[22] = system: 786-0; test: Cytotoxicity against human 786-0 cells after 48 hrs by SRB assay; details: 786-0, 48 h
[23] = system: SK-OV-3; test: Cytotoxicity against human SKOV3 cells after 48 hrs by SRB assay; details: SK-OV-3, 48 h
[24] = system: SK-MEL-5; test: Cytotoxicity against human SK-MEL-5 cells after 48 hrs by SRB assay; details: SK-MEL-5, 48 h
[25] = system: SF-295; test: Cytotoxicity against human SF295 cells after 48 hrs by SRB assay; details: SF-295, 48 h
[26] = system: HCT-116; test: Cytotoxicity against human HCT116 cells after 48 hrs by SRB assay; details: HCT-116, 48 h
[27] = Cytotoxicity against human EKVX cells after 48 hrs by SRB assay
[28] = system: SK-OV-3; test: Cytotoxicity against human SKOV3 cells assessed as cellular growth at 0.1 uM after 48 hrs by SRB assay relative to control
[29] = system: IGROV-1; test: Cytotoxicity against human IGROV1 cells assessed as cellular growth at 0.1 uM after 48 hrs by SRB assay relative to control
[30] = system: SK-MEL-28; test: Cytotoxicity against human SK-MEL-28 cells assessed as cellular growth at 0.1 uM after 48 hrs by SRB assay relative to control
[31] = system: LOX IMVI; test: Cytotoxicity against human LOXIMVI cells assessed as cellular growth at 0.1 uM after 48 hrs by SRB assay relative to control
[32] = system: SW-620; test: Cytotoxicity against human SW620 cells assessed as cellular growth at 0.1 uM after 48 hrs by SRB assay relative to control
[33] = system: KM12; test: Cytotoxicity against human KM12 cells assessed as cellular growth at 0.1 uM after 48 hrs by SRB assay relative to control
[34] = system: UO-31; test: Cytotoxicity against human UO31 cells assessed as cellular growth at 0.01 uM after 48 hrs by SRB assay relative to control
[35] = system: SN12C; test: Cytotoxicity against human SN12C cells assessed as cellular growth at 0.01 uM after 48 hrs by SRB assay relative to control
[36] = system: ACHN; test: Cytotoxicity against human ACHN cells assessed as cellular growth at 0.01 uM after 48 hrs by SRB assay relative to control
[37] = read-out: LC50 (the source's name)
[38] = read-out: pLC50 (the source's name) (converted)

O=C(CCCn1c2c(sc3ccccc32)c(=O)n2nnc(-c3ccccc3)c12)NCCc1c[nH]cn1
Activity [1]: 133% | Activity [2]: 101% | Activity [3]: 94% | Activity [4]: 111% | Activity [5]: 97% | Activity [6]: 65% | Activity [7]: -100% | Activity [8]: -84% | Activity [9]: -66% | Activity [10]: -100% | Activity [11]: 57% | Activity [12]: -84.52% | Activity [13]: -49% | Activity [14]: 113% | Activity [15]: 32% | Activity [16]: 36% | Activity [17]: -27% | Activity [18]: 75% | Activity [19]: 67% | Activity [20]: -18% | GI50 ([21]; read-out: GI50): 1300 nM | CC50 [21, 37]: 5.22 µM | TGI ([21]; read-out: TGI): 2610 nM | GI50 ([21]; read-out: pGI50 (converted)): 1290 nM | CC50 [21, 38]: 5.25 µM | TGI ([21]; read-out: pTGI (converted)): 2630 nM | GI50 ([22]; read-out: GI50): 1050 nM | CC50 [22, 37]: 5.34 µM | TGI ([22]; read-out: TGI): 2370 nM | GI50 ([22]; read-out: pGI50 (converted)): 1050 nM | CC50 [22, 38]: 5.37 µM | TGI ([22]; read-out: pTGI (converted)): 2340 nM | GI50 ([23]; read-out: GI50): 2.39 µM | CC50 [23, 37]: 29.2 µM | TGI ([23]; read-out: TGI): 8.5 µM | GI50 ([23]; read-out: pGI50 (converted)): 2.4 µM | CC50 [23, 38]: 29.5 µM | TGI ([23]; read-out: pTGI (converted)): 8.51 µM | GI50 ([24]; read-out: GI50): 2020 nM | CC50 [24, 37]: 33.2 µM | TGI ([24]; read-out: TGI): 11 µM | GI50 ([24]; read-out: pGI50 (converted)): 2040 nM | CC50 [24, 38]: 33.1 µM | TGI ([24]; read-out: pTGI (converted)): 11 µM | GI50 ([25]; read-out: GI50): 456 nM | CC50 [25, 37]: 5.41 µM | TGI ([25]; read-out: TGI): 2110 nM | GI50 ([25]; read-out: pGI50 (converted)): 457 nM | CC50 [25, 38]: 5.37 µM | TGI ([25]; read-out: pTGI (converted)): 2090 nM | GI50 ([26]; read-out: GI50): < 10 nM | GI50 ([26]; read-out: pGI50 (converted)): 10 nM | GI50 ([27]; read-out: GI50): 2500 nM | CC50 [27, 37]: > 100 µM | TGI ([27]; read-out: TGI): 15.8 µM | GI50 ([27]; read-out: pGI50 (converted)): 2510 nM | CC50 [27, 38]: > 100 µM | TGI ([27]; read-out: pTGI (converted)): 15.8 µM | Activity [28]: 99% | Activity [29]: 50% | Activity [30]: 121% | Activity [31]: 89% | Activity [32]: 29% | Activity [33]: 62% | Activity [34]: 104% | Activity [35]: 50% | Activity [36]: 104%

CN1CCN(CCCn2c3c(sc4ncccc43)c(=O)n3nnc(-c4ccccc4)c23)CC1
Activity [1]: 100% | Activity [2]: 96% | Activity [3]: 101% | Activity [4]: 102% | Activity [5]: 95% | Activity [6]: 95% | Activity [7]: -46% | Activity [8]: -92% | Activity [9]: -81% | Activity [10]: -49% | Activity [11]: 103% | Activity [12]: -63% | Activity [13]: -43% | Activity [14]: 93% | Activity [15]: 89% | Activity [16]: 98% | Activity [17]: 88% | Activity [18]: 95% | Activity [19]: 97% | Activity [20]: 104% | GI50 ([21]; read-out: GI50): 1030 nM | CC50 [21, 37]: 5.94 µM | TGI ([21]; read-out: TGI): 2470 nM | GI50 ([21]; read-out: pGI50 (converted)): 1020 nM | CC50 [21, 38]: 5.89 µM | TGI ([21]; read-out: pTGI (converted)): 2450 nM | GI50 ([22]; read-out: GI50): 1870 nM | CC50 [22, 37]: 6.56 µM | TGI ([22]; read-out: TGI): 3500 nM | GI50 ([22]; read-out: pGI50 (converted)): 1860 nM | CC50 [22, 38]: 6.61 µM | TGI ([22]; read-out: pTGI (converted)): 3470 nM | GI50 ([23]; read-out: GI50): 18.7 µM | CC50 [23, 37]: 59.6 µM | TGI ([23]; read-out: TGI): 33.4 µM | GI50 ([23]; read-out: pGI50 (converted)): 18.6 µM | CC50 [23, 38]: 60.3 µM | TGI ([23]; read-out: pTGI (converted)): 33.1 µM | GI50 ([24]; read-out: GI50): 1700 nM | CC50 [24, 37]: 5.81 µM | TGI ([24]; read-out: TGI): 3.14 µM | GI50 ([24]; read-out: pGI50 (converted)): 1700 nM | CC50 [24, 38]: 5.75 µM | TGI ([24]; read-out: pTGI (converted)): 3.16 µM | GI50 ([25]; read-out: GI50): 1960 nM | CC50 [25, 37]: 6.96 µM | TGI ([25]; read-out: TGI): 3700 nM | GI50 ([25]; read-out: pGI50 (converted)): 1950 nM | CC50 [25, 38]: 6.92 µM | TGI ([25]; read-out: pTGI (converted)): 3720 nM | GI50 ([26]; read-out: GI50): 1710 nM | CC50 [26, 37]: 6.96 µM | TGI ([26]; read-out: TGI): 3.45 µM | GI50 ([26]; read-out: pGI50 (converted)): 1700 nM | CC50 [26, 38]: 6.92 µM | TGI ([26]; read-out: pTGI (converted)): 3.47 µM | GI50 ([27]; read-out: GI50): 2120 nM | CC50 [27, 37]: 15.7 µM | TGI ([27]; read-out: TGI): 4.9 µM | GI50 ([27]; read-out: pGI50 (converted)): 2140 nM | CC50 [27, 38]: 83.2 µM | TGI ([27]; read-out: pTGI (converted)): 4.9 µM | Activity [28]: 94% | Activity [29]: 96% | Activity [30]: 95% | Activity [31]: 88% | Activity [32]: 89% | Activity [33]: 94% | Activity [34]: 66% | Activity [35]: 97% | Activity [36]: 105%
